From patent publication US8143308B2, “Synthesis of oligo/poly(catechins) and methods of use” (University of Massachusetts Lowell, priority 2005, dated 2012)

Tests used:
[1] = tested on: MCF-7 (HTB-22, low metastatic breast adenocarcinoma) cells; test: Cell proliferation assay, MCF-7 low metastatic breast adenocarcinoma cells; assay type: cell-based, human; settings: another experiment; only at high doses effective
[2] = tested on: MCF12A (CRL#10782, normal mammary epithelial) cells; test: Cell proliferation assay, MCF12A normal mammary epithelial cells; settings: another experiment
[3] = Stability of activity after dissolving in solvent
[4] = tested on: MCF-7 and MDA-MB-231 cells; test: Anticancer activity in vitro, summary statements for breast cancer cells; assay type: cell-based, human; settings: MCF-7 and MDA-MB-231 in vitro

With (−)-epigallocatechin gallate [EGCG] the “dose at which effective on MCF-7” value [1] was 9.2 µg/mL, the “inhibition of normal MCF-12A cells (in words)” value ([2]; 5.0 μg/ml) was “inhibited” and the “inhibition of normal MCF-12A cells (in words)” value ([2]; 40 μg/ml) was “inhibited”. The “time to loss of activity” value [3] was ≤ 1 h and the “dose at which active / effective” value [4] was 1 to 40 µg/mL.
